Experimental data taken from patent US20120053115A1, “Lantibiotic Carboxyamide Derivatives With Enhanced Antibacterial Activity” (Sentinella Pharmaceuticals, Inc., priority 2008, published 2012).

Key:
[1] = system: S. haemolyticus Met-R (code 1729); settings: 0.02% albumine bovine serum, read after 24 h
Experimental: (§1) MICs were performed using the broth microdilution methodology following the NCCLS procedure (NCCLS Document M7-A4 Vol. 17 No. 2 January 1997) in presence of 0.02% albumine bovine serum with inocula of approximately 5×10^5 cfu/mL. The media employed included cation-adjusted Mueller-Hinton (MH) broth (Difco Laboratories, Detroit, Mich., USA) supplemented or not with 30% (v/v) bovine serum. Tests were read after 24 h incubation at 25-37° C.

[2] = system: E. faecalisVanS (code 559); settings: E. faecalis VanS code 559; 0.02% albumine bovine serum; read after 24 h
Experimental: as §1

[3] = system: Enterococcus faecium VanS (code 568); settings: E. faecium VanS code 568; 0.02% albumine bovine serum; read after 24 h
Experimental: as §1

[4] = system: C. albicans ATCC 90028 (code 145); settings: 0.02% albumine bovine serum, read after 24 h
Experimental: as §1

[5] = system: Escherichia coli (code 47); settings: 0.02% albumine bovine serum, read after 24 h
Experimental: as §1

[6] = system: Staphylococcus aureus VISA (code 3798); settings: S. aureus VISA code 3798; 0.02% albumine bovine serum; read after 24 h
Experimental: as §1

[7] = system: S. haemolyticus Met-S (code 1730); settings: 0.02% albumine bovine serum, read after 24 h
Experimental: as §1

[8] = system: S. epidermidis ATCC12228 (code 147); settings: 0.02% albumine bovine serum, read after 24 h
Experimental: as §1

[9] = system: E. faecium VanA (code 569); settings: 0.02% albumine bovine serum, read after 24 h
Experimental: as §1

[10] = system: Staphylococcus aureus VISA Met-R (code 3797); settings: S. aureus VISA Met-R code 3797; 0.02% albumine bovine serum; read after 24 h
Experimental: as §1

[11] = system: E. faecalisVanA (code 560); settings: E. faecalis VanA code 560; 0.02% albumine bovine serum; read after 24 h
Experimental: as §1

SMILES | Minimal Inhibitory Concentrations [1] [µg/mL] | Minimal Inhibitory Concentrations [2] [µg/mL] | Minimal Inhibitory Concentrations [3] [µg/mL] | Minimal Inhibitory Concentrations [4] [µg/mL] | Minimal Inhibitory Concentrations [5] [µg/mL] | Minimal Inhibitory Concentrations [6] [µg/mL] | Minimal Inhibitory Concentrations [7] [µg/mL] | Minimal Inhibitory Concentrations [8] [µg/mL] | Minimal Inhibitory Concentrations [9] [µg/mL] | Minimal Inhibitory Concentrations [10] [µg/mL] | Minimal Inhibitory Concentrations [11] [µg/mL]
C=C1NC(=O)[C@H](C(C)C)NC(=O)[C@H](NC(=O)/C(=C/C)NC(=O)[C@@H](N)[C@@H](C)CC)CSC[C@@H](C(=O)N[C@H]2C(=O)N3CCC[C@H]3C(=O)NCC(=O)N[C@H](C(=O)N[C@H](C(=O)N[C@@H]3CSC[C@@H]4NC(=O)CNC(=O)[C@@H](CSC[C@@H]5NC(=O)[C@H](Cc6c[nH]cn6)NC(=O)[C@@H](CSC[C@@H](C(=O)NC6CCCCC6)NC5=O)NC4=O)NC(=O)CNC(=O)CNC(=O)CNC(=O)[C@H](CCC(=O)NC4CCCCC4)NC3=O)[C@@H](C)O)CS[C@H]2C)NC(=O)[C@H](Cc2c[nH]c3ccccc23)NC1=O [Compound 1] | 32 | 1 | 2 | 64 | >128 | 2 | 4 | 2 | 2 | 4 | 1
C=C1NC(=O)[C@H](C(C)C)NC(=O)[C@H](NC(=O)/C(=C/C)NC(=O)[C@@H](N)[C@@H](C)CC)CSC[C@@H](C(=O)N[C@H]2C(=O)N3CCC[C@H]3C(=O)NCC(=O)N[C@H](C(=O)N[C@H](C(=O)N[C@@H]3CSC[C@@H]4NC(=O)CNC(=O)[C@@H](CSC[C@@H]5NC(=O)[C@H](Cc6c[nH]cn6)NC(=O)[C@@H](CSC[C@@H](C(=O)N(C)C)NC5=O)NC4=O)NC(=O)CNC(=O)CNC(=O)CNC(=O)[C@H](CCC(=O)N(C)C)NC3=O)[C@@H](C)O)CS[C@H]2C)NC(=O)[C@H](Cc2c[nH]c3ccccc23)NC1=O [Compound 2] | 32 | 16 | 16 | 64 | >128 | 4 | 8 | 8 | 16 | 16 | 16
C=CCNC(=O)CC[C@@H]1NC(=O)[C@H](NC(=O)[C@@H](NC(=O)[C@@H]2CS[C@@H](C)[C@@H](NC(=O)[C@@H]3CSC[C@@H](NC(=O)/C(=C/C)NC(=O)[C@@H](N)[C@@H](C)CC)C(=O)N[C@@H](C(C)C)C(=O)NC(=C)C(=O)N[C@@H](Cc4c[nH]c5ccccc45)C(=O)N3)C(=O)N3CCC[C@H]3C(=O)NCC(=O)N2)[C@@H](C)O)CSC[C@@H]2NC(=O)CNC(=O)[C@@H](CSC[C@@H]3NC(=O)[C@H](Cc4c[nH]cn4)NC(=O)[C@@H](CSC[C@@H](C(=O)NCC=C)NC3=O)NC2=O)NC(=O)CNC(=O)CNC(=O)CNC1=O [Compound 5] | 32 | 8 | 8 | 32 | >128 | 2 | 4 | 4 | 8 | 8 | 8
